Experimental data from PMC3523327 (Bioorganic & medicinal chemistry letters, 2012).

How the values were obtained:
[1] = molecular target: HIV-1 integrase (IN), 3′-processing (Human immunodeficiency virus type 1 group M subtype B, UniProt P12497); assay: in vitro IN assay, 3′-processing reaction; format: biochemical
[2] = molecular target: HIV-1 integrase (IN), strand transfer (Human immunodeficiency virus type 1 group M subtype B, UniProt P12497); assay: in vitro IN assay, strand transfer reaction; format: biochemical; conditions: ST IC50 of 5d-2 versus 4d
[3] = test system: HIV-1 vector with N155H IN mutant; conditions: cellular studies, HIV vectors bearing N155H mutant; ref [25]; cited from earlier work

In the case of `CCCCc1cc2c(c(O)c1O)C(=O)N(Cc1ccc(F)c(Cl)c1)C2` [Compound 4c], the IC50 [1] is reported as greater than 111 µM.

In the case of `CC(C)c1c(O)c(O)c2c(c1S(=O)(=O)N(C)C)CN(Cc1ccc(F)c(Cl)c1)C2=O` [Compound 5d-2], the “enhancement in the ST reaction relative to parent 4d” value [2] is reported as 20 fold and the IC50 [1] is reported as greater than 111 µM.

Molecule `O=C1c2c(cc(-c3ccccc3)c(O)c2O)CN1Cc1ccc(F)c(Cl)c1` [Compound 4e] has an IC50 [1] greater than 111 µM.

Work on `CCCCc1c(O)c(O)c2c(c1S(=O)(=O)N(C)C)CN(Cc1ccc(F)c(Cl)c1)C2=O` [Compound 5c-2] yielded an IC50 [1] greater than 111 µM.

For `Cc1nnc(C(=O)NC(C)(C)c2nc(C(=O)NCc3ccc(F)cc3)c(O)c(=O)n2C)o1` [raltegravir], the “loss of antiviral potency” value [3] is given as roughly 40 fold.

For `CC(C)c1c(O)c(O)c2c(c1S(=O)(=O)N1CCOCC1)CN(Cc1ccc(F)c(Cl)c1)C2=O` [Compound 5d-10], the IC50 [1] was greater than 111 µM.

`CC(C)c1cc2c(c(O)c1O)C(=O)N(Cc1ccc(F)c(Cl)c1)C2` [Compound 4d] gave an IC50 [1] greater than 111 µM.

For `Cc1cc2c(c(O)c1O)C(=O)N(Cc1ccc(F)c(Cl)c1)C2` [Compound 4b], the IC50 [1] was greater than 111 µM.

`CN(C)S(=O)(=O)c1ccc(-c2cc3c(c(O)c2O)C(=O)N(Cc2ccc(F)c(Cl)c2)C3)cc1` [Compound 4h] showed an IC50 [1] greater than 111 µM.
